# Values quoted from earlier work, collected in patent publication US20120252687A1, “Scoring Function Penalizing Compounds Which Desolvate Charged Protein Side Chains Structure” (priority 2011, published 2012).
# Experiments:
# [1] = target: Cdk2 (Homo sapiens, UniProt P24941); conditions: PDB complex
# [2] = target: Jnk (Homo sapiens, UniProt P53779); conditions: PDB complex
# Sequence of Jnk (P53779 whole entry): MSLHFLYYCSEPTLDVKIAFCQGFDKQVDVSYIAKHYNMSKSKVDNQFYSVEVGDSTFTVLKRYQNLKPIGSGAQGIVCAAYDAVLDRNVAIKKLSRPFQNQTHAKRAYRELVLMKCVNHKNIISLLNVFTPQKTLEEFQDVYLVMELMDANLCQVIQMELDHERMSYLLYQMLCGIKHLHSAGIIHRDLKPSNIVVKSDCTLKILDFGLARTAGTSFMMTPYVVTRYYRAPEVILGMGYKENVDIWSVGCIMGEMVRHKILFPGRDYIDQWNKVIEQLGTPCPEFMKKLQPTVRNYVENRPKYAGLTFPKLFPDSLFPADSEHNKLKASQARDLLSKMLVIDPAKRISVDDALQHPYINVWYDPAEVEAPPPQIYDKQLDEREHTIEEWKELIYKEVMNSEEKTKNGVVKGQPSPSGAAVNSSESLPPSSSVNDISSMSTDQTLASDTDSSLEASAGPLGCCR
SMILES,dG (experimental free energy of binding) [1],dG (experimental free energy of binding) [2]
NS(=O)(=O)c1ccc(Nc2cn3cc(C(=O)c4c(Cl)cccc4Cl)ccc3n2)cc1 [Cdk2_1ykr],−8.5,–
N#Cc1c(NC(=O)c2cccc3ccccc23)sc2c1CCN(C(=O)CCN1CCCCC1)C2 [Jnk_2o0u],–,−7.5
